Data from the OPERA property sets (Mansouri et al. 2018).

Conditions: for log10 BCF / log10 biotransformation half-life (days): fish

Row | SMILES | boiling point [°C] | melting point [°C] | other results
1 | Clc1cc(Cl)c2c(oc3c(Cl)cc(Cl)c(Cl)c32)c1Cl | – | – | log10 BCF: 2.96
2 | C=CC(OC(C)=O)OC(C)=O | 180 | -37.6 | ready biodegradability: readily biodegradable
3 | FC(F)(F)c1ccc(Cl)cc1 | 138 | -33 | log10 vapour pressure (mmHg): 0.882
4 | CCOC(=O)c1ccccc1OC | 261 | – | –
5 | Cc1cccc(N=Cc2ccccc2)c1 | 315 | 31 | –
6 | CCF | -37.6 | -143 | log10 vapour pressure (mmHg): 3.84
7 | CC(O)C(C)CO (stereo unspecified) | 200 | – | –
8 | OCC(F)(F)C(F)F | 110 | -15 | log10 Henry constant (atm·m³/mol): -5.2; log10 vapour pressure (mmHg): 1.17
9 | FC(F)C(F)F | -19.9 | -89 | –
10 | C[Si](C)(CCl)c1ccccc1 | 225 | – | –
11 | CCOP(=S)(OCC)SCCS(=O)(=O)CC | – | – | log10 Koc (L/kg): 3.22; log10 BCF: 0.7; log10 biotransformation half-life (days): -0.67
12 | CC(C)N | 31.7 | -95.1 | log10 vapour pressure (mmHg): 2.76
13 | CN(C)CCCN | 133 | -60 | log10 vapour pressure (mmHg): 1
14 | CCOCCCl | 108 | – | –
15 | [C-]#[N+]C | 59.6 | -45 | –
16 | CC1=CCC(O)(C(C)C)CC1 (stereo unspecified) | 209 | – | –
17 | Oc1ncnc2[nH]ncc12 | – | 350 | –
18 | c1ccc2c(c1)ccc1c3ccc4ccccc4c3[nH]c21 | – | – | log10 Koc (L/kg): 6.02
19 | c1ccc2nncnc2c1 | 238 | 75.8 | –
20 | Cc1cc(-c2ccc(N=C=O)c(C)c2)ccc1N=C=O | – | 71 | –
21 | Fc1c(F)c(F)c(I)c(F)c1F | 166 | -29 | –
22 | C[C@]12CC[C@H]3[C@@H](CCC4=CC(=O)CC[C@@H]43)[C@@H]1CC[C@@H]2O | – | 118 | –
23 | Fc1ccc(F)c(F)c1 | 90 | – | –
24 | C[C@H](CS)C(=O)N1CCC[C@H]1C(=O)O | – | 106 | –
25 | CC(=O)CC(=O)C(=O)O | – | 99.5 | –
26 | Fc1ccc(-c2ccccc2)cc1 | 253 | 74.2 | –

Row | SMILES | boiling point [°C] | melting point [°C] | other results
27 | CCCSP(=S)(OCC)Oc1ccc(SC)cc1 (stereo unspecified) | – | -15 | log10 Koc (L/kg): 4.08; log10 vapour pressure (mmHg): -5.92
28 | NS(=O)(=O)c1cc2c(cc1Cl)N=C(CSCc1ccccc1)NS2(=O)=O | – | 232 | –
29 | O=c1[nH]ncc2ccccc12 | – | 188 | –
30 | Clc1cc2c(Cl)ccc(Cl)c2c(Cl)c1Cl | – | – | log10 Koa: 9.1; log10 vapour pressure (mmHg): -6
31 | CCCCCCCCCCCCCBr | 296 | 6.2 | log10 vapour pressure (mmHg): -2.87
32 | COc1ccccc1OCC(O)CO (stereo unspecified) | – | 78.5 | –
33 | CCCCCN1CCCCC1 | 198 | – | –
34 | COc1ccc(Cn2cncn2)cc1 | – | 41.5 | –
35 | C=C(C)F | -24 | – | –
36 | Cc1ncc(CO)c(C=O)c1O | – | 165 | ready biodegradability: readily biodegradable
37 | NC(N)=O.O=P(O)(O)O | – | 120 | –
38 | COc1cc(NS(C)(=O)=O)ccc1Nc1c2ccccc2nc2ccccc12 | – | 235 | –
39 | O=C(OCC(=O)N1CCOCC1)c1ccccc1 | – | 104 | –
40 | Oc1ccc([C@H](O)[C@H]2CCCCN2)cc1O | – | 204 | –
41 | O=C(O)c1cccc([N+](=O)[O-])c1C(=O)O | – | – | ready biodegradability: not readily biodegradable; log10 BCF: 0.72; log10 biotransformation half-life (days): -1.57
42 | COC(=O)C(F)(F)C(F)(F)C(F)(F)C(F)(F)C(F)(F)C(F)(F)C(F)(F)F | 158 | – | –
43 | COc1c(Cl)c(C)c2c(c1Cl)OC(=O)c1c(C)c(Cl)c(O)c(Cl)c1O2 | – | 232 | –
44 | COC(=O)C1(S(=O)(=O)c2ccccc2)CCCCC1 | – | 114 | –
45 | CC(Cl)CCCl (stereo unspecified) | 134 | – | –
46 | C[N+](C)(C)CCOC(=O)CCC(=O)OCC[N+](C)(C)C.[Cl-].[Cl-] | – | 190 | –
47 | CC1(C)C(=O)[C@@]2(C)CC[C@@H]1C2 | 193 | – | –
48 | C=CC1=CCCCC1 | 145 | – | –
49 | CC(C)COS(=O)OCC(C)C | 210 | – | –
50 | C=C(C)C(=O)OCCOCCOC(=O)C(=C)C | – | – | ready biodegradability: readily biodegradable
51 | CC(C)CCOc1ccc(NC(=S)Nc2ccc(OCCC(C)C)cc2)cc1 | – | 146 | –
52 | BrCCCc1ccccc1 | 220 | – | –

Row | SMILES | boiling point [°C] | melting point [°C] | other results
53 | CCC(=O)CC(C)CC (stereo unspecified) | 159 | – | ready biodegradability: readily biodegradable
54 | CCCCCCCCCCCCCCO | 289 | 39.5 | log10 vapour pressure (mmHg): -3.96; ready biodegradability: readily biodegradable
55 | Clc1ccc(Cl)c(Cl)c1 | 214 | 17 | log10 Henry constant (atm·m³/mol): -2.85; log10 Koa: 4.95; log10 Koc (L/kg): 3.1; log10 vapour pressure (mmHg): -0.337; ready biodegradability: not readily biodegradable; log10 BCF: 3.32; log10 biotransformation half-life (days): 1.2
56 | CC(C)C1(Cc2ccco2)C(=O)NC(=O)NC1=O | – | 169 | –
57 | CC(C)C(=O)OCCc1ccccc1 | 250 | – | –
58 | Cc1ccccc1[N+](=O)[O-] | 222 | -10 | log10 Henry constant (atm·m³/mol): -4.9; log10 vapour pressure (mmHg): -0.726; ready biodegradability: not readily biodegradable; log10 BCF: 1.26; log10 biotransformation half-life (days): -0.48
59 | CC(C)OP(=O)(OC(C)C)OC(C)C | 219 | – | –
60 | CCSCCSP(=S)(OC)OC | – | – | log10 vapour pressure (mmHg): -4.77
61 | CC1=C(/C=C/C(C)=C/C=C/C(C)=C/C=C/C=C(C)/C=C/C=C(C)/C=C/C2=C(C)C(=O)C(O)CC2(C)C)C(C)(C)CC(O)C1=O (stereo unspecified) | – | 182 | –
62 | CC(=O)Oc1cc(C(F)(F)F)ccc1C(=O)O | – | 121 | –
63 | CCN(N)CC | 99 | – | –
64 | Clc1ccc2c(c1)Oc1ccc(Cl)cc1O2 | – | – | log10 BCF: 2.54; log10 biotransformation half-life (days): 0.23
65 | CCCS(=O)(=O)O | – | 7.5 | –
66 | CC[C@H](C)CC=O | 121 | – | –
67 | c1ccc(-c2ccncn2)cc1 | – | 56 | –
68 | Cc1cc(C2CCCCC2)n(O)c(=O)c1 | – | 144 | –
69 | CN1C(CCl)Nc2cc(Cl)c(S(N)(=O)=O)cc2S1(=O)=O (stereo unspecified) | – | 225 | –
70 | COc1ccc(N)c(C)c1 | 248 | 29.5 | –
71 | CCC(C)(O)C#CC(C)(O)CC (stereo unspecified) | 135 | – | –
72 | CC1CCCC(Br)C1 (stereo unspecified) | 181 | – | –
73 | CC(=O)C1CCOC1=O (stereo unspecified) | – | – | ready biodegradability: readily biodegradable
74 | O=C(Nc1ccccc1)c1ccccc1I | – | 137 | log10 Koc (L/kg): 2.82
75 | OCN(CO)c1nc(N(CO)CO)nc(N(CO)CO)n1 | – | 137 | –
76 | CCOC(=O)C(C(C)=O)C(=O)OCC | 232 | – | –
77 | O=S(=O)(O)CCCN1CCOCC1 | – | 284 | –
78 | CCCCCCCCCCCCCCCCCC(=O)OC(C)C | – | 28 | log10 vapour pressure (mmHg): -4.4

Row | SMILES | boiling point [°C] | melting point [°C] | other results
79 | Cc1c(Cl)cc(Cl)c(O)c1Cl | 265 | 46 | –
80 | CCOP(=S)(OCC)Oc1cc(C)nc(N(CC)CC)n1 | – | 15 | log10 Koc (L/kg): 2.48; log10 vapour pressure (mmHg): -3.54
81 | Oc1ccc(Br)cc1Br | 238 | 38 | ready biodegradability: not readily biodegradable
82 | O=C(C=Cc1ccccc1)NCCO | – | 101 | –
83 | CCC(=O)C=C(C)CC | 166 | – | –
84 | C=CCCC(C)O (stereo unspecified) | 139 | – | –
85 | CC(=O)OCCN(C)C | 152 | – | –
86 | Brc1ccsc1 | 150 | – | log10 vapour pressure (mmHg): 1.22
87 | O=C=Nc1ccccc1Cl | 200 | 30.5 | –
88 | c1coc(CSSCc2ccco2)c1 | – | 10 | –
89 | O=[N+]([O-])c1ccc(NS(=O)(=O)c2ccc(Cl)c(C(F)(F)F)c2)c(Cl)c1 | – | 170 | –
90 | O=C1C=CCC1 | 136 | – | –
91 | CCC(Br)(Br)CBr | 214 | – | –
92 | Cc1ccc(C)nc1 | 157 | -16 | log10 Henry constant (atm·m³/mol): -5.06; log10 vapour pressure (mmHg): 0.526
93 | CCCC(=O)CC(C)C | 155 | – | –
94 | c1ccc(C(c2ccccc2)(c2ccccc2)c2ccccc2)cc1 | 431 | 282 | –
95 | Nc1nnc(-c2ccc([N+](=O)[O-])o2)s1 | – | 280 | –
96 | CC[N+](CC)(CC)CCC(O)(c1ccccc1)C1CCCCC1.[I-] (stereo unspecified) | – | 182 | –
97 | CC(=O)c1ccc(Br)cc1 | 257 | 50.5 | –
98 | CCCCCCCCC#N | 224 | -34.2 | ready biodegradability: readily biodegradable
99 | FC(F)(F)c1nc(C(F)(F)F)nc(C(F)(F)F)n1 | 95.5 | -24.8 | –
100 | FC(F)(F)Cl | -81.4 | -181 | log10 Henry constant (atm·m³/mol): 0.14; log10 vapour pressure (mmHg): 4.33
101 | CNC(=O)COc1ccccc1OCC(O)CNC(C)(C)C (stereo unspecified) | – | 96.5 | –
102 | Cc1cc([N+](=O)[O-])c(N)c([N+](=O)[O-])c1 | – | 172 | –
103 | NCCCCCC(=O)O | – | 205 | –
104 | Cl.Cl.Cl.Cl.Nc1ccc(-c2ccc(N)c(N)c2)cc1N | – | 179 | –

Row | SMILES | boiling point [°C] | melting point [°C] | other results
105 | CC(=O)c1ccc(O)cc1O | – | 146 | –
106 | O=C(O)C1C(c2ccccc2)C(C(=O)O)C1c1ccccc1 (stereo unspecified) | – | 228 | –
107 | CCCC(=O)N(CC)CC | 206 | – | –
108 | CN1CCNCC1 | 138 | -6 | –
109 | Cc1nc(C)c(C)nc1C | 190 | 85 | –
110 | C[Si](C)(C)N=C=N[Si](C)(C)C | 164 | -23 | –
111 | C1CCN(CCN2CCCCC2)CC1 | 265 | -0.5 | –
112 | CC(C)=CCC/C(C)=C/C=C/C(C)=C/C=C/C(C)=C/C=C/C=C(C)/C=C/C=C(C)/C=C/C1=C(C)CCCC1(C)C | – | 178 | –
113 | CC(C)CBr | 91.1 | -119 | –
114 | CC1=C2[C@H]3OC(=O)[C@@H](C)[C@@H]3CC[C@@]2(C)C=CC1=O | – | 175 | –
115 | CC(C)(C)OOC(C)(C)C | 111 | -40 | log10 vapour pressure (mmHg): 1.4
116 | CC(C)(C)C1=CC(=O)C=C(C(C)(C)C)C1=O | – | 66 | –
117 | CC(C)CC(O)C(C)C (stereo unspecified) | 158 | – | –
118 | FC(F)Cl | -40.7 | -157 | log10 Henry constant (atm·m³/mol): -1.39; log10 vapour pressure (mmHg): 3.86; ready biodegradability: not readily biodegradable
119 | N#CCCCCCCC#N | – | -3.5 | –
120 | CC(=O)I | 108 | – | log10 vapour pressure (mmHg): 1.51
121 | CC(=O)c1ccc(I)cc1 | – | 86 | –
122 | O=C(O)c1ccc2c(c1)CCCC2 | – | 156 | –
123 | C[C@]1(O)CC[C@H]2[C@@H]3CCC4=CC(=O)CC[C@]4(C)[C@@]3(F)[C@@H](O)C[C@@]21C | – | 270 | –
124 | CCCCC(Cl)CCl (stereo unspecified) | 173 | – | –
125 | CC(C)S[C@@H]1O[C@H](CO)[C@H](O)[C@H](O)[C@H]1O | – | 121 | –
126 | Clc1ccc(-c2c(Cl)cccc2Cl)cc1 | – | – | log10 Henry constant (atm·m³/mol): -3.7; log10 Koa: 7.72; log10 biotransformation half-life (days): 2.44
127 | CCCCC=C(C)C | 123 | – | log10 vapour pressure (mmHg): 1.25
